Measurements reported in ChEMBL document CHEMBL3779888, “Discovery of novel 2-phenyl-imidazo[1,2-a]pyridine analogues targeting tubulin polymerization as antiproliferative agents” (Eur J Med Chem, 2016).

Experiments:
HeLa = experiment: Cytotoxicity against human HeLa cells after 3 days by SRB assay; format: functional, cell-based; conditions: 72 h
Tubulin = Tubulin (Sus scrofa, UniProt P02554+P02550); experiment: Inhibition of porcine tubulin polymerization by UV-Vis microplate reader analysis; format: protein assay
Tubulin (Sus scrofa) = Tubulin (Sus scrofa) (UniProt P02554+P02550); experiment: Displacement of [3H]-colchicine from porcine tubulin at 20 uM preincubated for 1 hr followed by radioligand addition measured after 30 mins by DE81 filter-based scintillation spectrometric assay; format: protein assay
Tubulin (Sus scrofa), sequence (P02550 whole entry, looked up): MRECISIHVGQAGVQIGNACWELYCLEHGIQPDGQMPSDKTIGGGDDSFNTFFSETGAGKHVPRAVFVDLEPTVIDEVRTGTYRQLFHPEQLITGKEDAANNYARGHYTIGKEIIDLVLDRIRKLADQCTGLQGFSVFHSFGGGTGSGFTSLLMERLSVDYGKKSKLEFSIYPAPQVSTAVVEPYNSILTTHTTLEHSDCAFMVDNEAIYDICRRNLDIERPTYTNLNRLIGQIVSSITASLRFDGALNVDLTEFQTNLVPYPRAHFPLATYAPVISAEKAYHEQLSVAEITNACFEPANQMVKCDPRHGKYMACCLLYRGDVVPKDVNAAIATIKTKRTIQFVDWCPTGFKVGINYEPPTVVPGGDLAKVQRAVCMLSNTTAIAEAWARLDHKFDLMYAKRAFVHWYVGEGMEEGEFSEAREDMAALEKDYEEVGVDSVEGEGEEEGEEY
Tubulin (Sus scrofa), sequence (P02554 whole entry, looked up): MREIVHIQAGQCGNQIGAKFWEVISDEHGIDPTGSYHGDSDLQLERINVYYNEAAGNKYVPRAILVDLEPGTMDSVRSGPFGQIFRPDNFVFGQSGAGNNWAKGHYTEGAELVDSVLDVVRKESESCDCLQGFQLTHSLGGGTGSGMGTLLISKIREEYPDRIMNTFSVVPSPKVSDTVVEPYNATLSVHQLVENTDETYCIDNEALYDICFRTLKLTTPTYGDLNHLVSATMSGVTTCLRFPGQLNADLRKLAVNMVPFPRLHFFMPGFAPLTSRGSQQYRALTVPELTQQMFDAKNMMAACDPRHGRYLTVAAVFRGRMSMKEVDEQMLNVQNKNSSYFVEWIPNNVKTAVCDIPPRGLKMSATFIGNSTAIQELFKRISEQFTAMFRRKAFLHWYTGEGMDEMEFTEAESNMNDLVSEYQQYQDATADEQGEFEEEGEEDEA

IC50 (Tubulin)	inhibition (Tubulin (Sus scrofa))	SMILES	IC50 (HeLa)
		COc1ccc(CNc2c(-c3ccccc3O)nc3ccc(Br)cn23)cc1	810 nM
		COc1cc2c(c(OC)c1OC)-c1ccc(OC)c(=O)cc1[C@@H](NC(C)=O)CC2 [COLCHICINE]	37 nM
		COc1ccc(CNc2c(-c3ccccc3O)nc3cccc(F)n23)cc1	46 nM
		COc1ccc(CNc2c(-c3ccccc3NS(C)(=O)=O)nc3ccccn23)cc1	> 10000 nM
		COc1ccc(Nc2c(-c3ccccc3O)nc3ccccn23)cc1	> 10000 nM
		COc1ccc(CNc2c(-c3cc([N+](=O)[O-])ccc3O)nc3ccccn23)cc1	210 nM
7160 nM	41.1%	COc1ccc(CNc2c(-c3ccccc3O)nc3cnccn23)cc1	37 nM
		COc1ccc(CNc2c(-c3ccccc3OC)nc3ccccn23)cc1	230 nM
		COc1ccc(CNc2c(-c3cc(Cl)cc(Cl)c3O)nc3ccccn23)cc1	4160 nM
4350 nM	66%	COc1ccc(CNc2c(-c3ccccc3O)nc3ccccn23)cc1	15 nM
		COc1ccc(CCNc2c(-c3ccccc3O)nc3ccccn23)cc1	8220 nM
3410 nM	72.2%	COc1ccc(CNc2c(-c3ccccc3O)nc3ccc(F)cn23)cc1	13 nM
		COc1ccc(CNc2c(-c3c(O)cc(OC)cc3OC)nc3ccccn23)cc1	> 10000 nM
		COc1ccc(CNc2c(-c3ccccc3NC(C)=O)nc3ccccn23)cc1	> 10000 nM
